Eight cell lines from the supplement of paper PMC10307832 can be followed below.

Common to all, as to assay: relative viability (nuclei count vs DMSO), 5 days (fraction); higher = more cells survive
Compound in the experiment “Dabrafenib + Foretinib”: CC(C)(C)c1nc(-c2cccc(NS(=O)(=O)c3c(F)cccc3F)c2F)c(-c2ccnc(N)n2)s1 [Dabrafenib] + COc1cc2c(Oc3ccc(NC(=O)C4(C(=O)Nc5ccc(F)cc5)CC4)cc3F)ccnc2cc1OCCCN1CCOCC1 [Foretinib] (partner 0.25 µM)
A digest of the protocol: (§1)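 Relative viability divides the nuclei count in treated wells by that in vehicle wells. Lung cancer cell lines were seeded in 1536-well plates, dosed by pin tool the next day, and fixed and stained after 5 days in one step with final 0.05% Triton X-100, 1% formaldehyde and 1 ug/ml Hoechst. Dosing was a single drug or a fixed anchor-drug dose plus five library-drug doses (not always all listed) in √10 steps, and values are medians of duplicate plates imaged at 4×.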

Compound in the experiment “Dabrafenib + Pictilisib”: CC(C)(C)c1nc(-c2cccc(NS(=O)(=O)c3c(F)cccc3F)c2F)c(-c2ccnc(N)n2)s1 [Dabrafenib] + CS(=O)(=O)N1CCN(Cc2cc3nc(-c4cccc5[nH]ncc45)nc(N4CCOCC4)c3s2)CC1 [Pictilisib] (partner 1 µM)
Put shortly: as §1

Compound in the experiment “VX-702 + Tozasertib”: NC(=O)c1ccc(N(C(N)=O)c2c(F)cccc2F)nc1-c1ccc(F)cc1F [VX-702] + Cc1cc(Nc2cc(N3CCN(C)CC3)nc(Sc3ccc(NC(=O)C4CC4)cc3)n2)n[nH]1 [Tozasertib] (partner 0.1 µM)
A digest of the protocol:
as §1

Compound in the experiment “VX-702 + Olaparib”: NC(=O)c1ccc(N(C(N)=O)c2c(F)cccc2F)nc1-c1ccc(F)cc1F [VX-702] + O=C(c1cc(Cc2n[nH]c(=O)c3ccccc23)ccc1F)N1CCN(C(=O)C2CC2)CC1 [Olaparib] (partner 8 µM)
A digest of the protocol: as §1

Regarding HCC-366, the relative viability is 0.894 with Dabrafenib + Foretinib (first compound 0.003 µM); 0.944 in the experiment with Dabrafenib + Foretinib (first compound 0.009487 µM); 0.812 with Dabrafenib + Foretinib (first compound 0.03 µM); 0.875 with Dabrafenib + Foretinib (first compound 0.09487 µM); 0.891 in the experiment with Dabrafenib + Foretinib (first compound 0.3 µM); 0.161 with Dabrafenib + Pictilisib (first compound 0.003 µM). For the same cell line, the relative viability with Dabrafenib + Pictilisib (first compound 0.009487 µM) came out at 0.183; in the experiment with Dabrafenib + Pictilisib (first compound 0.03 µM), 0.0973; with Dabrafenib + Pictilisib (first compound 0.09487 µM), 0.169; with Dabrafenib + Pictilisib (first compound 0.3 µM) it was 0.118; in the experiment with VX-702 + Tozasertib (first compound 0.02 µM), 0.156; in the experiment with VX-702 + Tozasertib (first compound 0.2 µM), 0.095. For the same cell line, the relative viability worked out at 0.0851 in the experiment with VX-702 + Tozasertib (first compound 0.6325 µM); 0.0835 in the experiment with VX-702 + Tozasertib (first compound 2 µM); 0.409 with VX-702 + Olaparib (first compound 0.02 µM); 0.361 in the experiment with VX-702 + Olaparib (first compound 0.2 µM); 0.353 with VX-702 + Olaparib (first compound 0.6325 µM); 0.269 with VX-702 + Olaparib (first compound 2 µM).

On to HCC-827, for which the relative viability with Dabrafenib + Foretinib (first compound 0.003 µM) was 1.11; in the experiment with Dabrafenib + Foretinib (first compound 0.009487 µM) it was 1.04; with Dabrafenib + Foretinib (first compound 0.03 µM) it was 0.876; in the experiment with Dabrafenib + Foretinib (first compound 0.3 µM) it was 1.03; in the experiment with Dabrafenib + Pictilisib (first compound 0.003 µM) it was 1.07; with Dabrafenib + Pictilisib (first compound 0.009487 µM), 1.13. For the same cell line, the relative viability in the experiment with Dabrafenib + Pictilisib (first compound 0.03 µM) was 0.89; in the experiment with Dabrafenib + Pictilisib (first compound 0.3 µM) it was 1.03; with VX-702 + Tozasertib (first compound 0.02 µM), 0.427; in the experiment with VX-702 + Tozasertib (first compound 0.2 µM), 0.396; with VX-702 + Tozasertib (first compound 0.6325 µM) it was 0.387; with VX-702 + Tozasertib (first compound 2 µM), 0.393. Further, the relative viability with VX-702 + Olaparib (first compound 0.02 µM) was 0.648; in the experiment with VX-702 + Olaparib (first compound 0.2 µM), 0.603; with VX-702 + Olaparib (first compound 0.6325 µM), 0.59; with VX-702 + Olaparib (first compound 2 µM), 0.562.

For the cell line HOP-62, the relative viability with Dabrafenib + Foretinib (first compound 0.003 µM) is 1.12; in the experiment with Dabrafenib + Foretinib (first compound 0.009487 µM) it was 1.1; with Dabrafenib + Foretinib (first compound 0.03 µM), 1.16; with Dabrafenib + Foretinib (first compound 0.09487 µM) it was 0.969; with Dabrafenib + Foretinib (first compound 0.3 µM), 1.12; with Dabrafenib + Pictilisib (first compound 0.009487 µM), 0.843. Besides, the relative viability was determined as 0.648 with Dabrafenib + Pictilisib (first compound 0.03 µM); 0.581 with Dabrafenib + Pictilisib (first compound 0.09487 µM); 0.727 with Dabrafenib + Pictilisib (first compound 0.3 µM); 0.474 in the experiment with VX-702 + Tozasertib (first compound 0.02 µM); 0.37 in the experiment with VX-702 + Tozasertib (first compound 0.2 µM); 0.41 in the experiment with VX-702 + Tozasertib (first compound 0.6325 µM). The relative viability in the experiment with VX-702 + Tozasertib (first compound 2 µM) is 0.373; with VX-702 + Olaparib (first compound 0.02 µM), 0.478; with VX-702 + Olaparib (first compound 0.2 µM), 0.611; with VX-702 + Olaparib (first compound 0.6325 µM) it was 0.553; with VX-702 + Olaparib (first compound 2 µM), 0.65.

Turning to LC-2-ad, the relative viability was 1.09 in the experiment with Dabrafenib + Foretinib (first compound 0.009487 µM); 0.82 in the experiment with Dabrafenib + Foretinib (first compound 0.03 µM); 0.922 in the experiment with Dabrafenib + Foretinib (first compound 0.09487 µM); 1.1 in the experiment with Dabrafenib + Foretinib (first compound 0.3 µM); 0.489 with Dabrafenib + Pictilisib (first compound 0.003 µM); 0.137 with Dabrafenib + Pictilisib (first compound 0.009487 µM). The relative viability in the experiment with Dabrafenib + Pictilisib (first compound 0.03 µM) was found to be 0.408; with Dabrafenib + Pictilisib (first compound 0.09487 µM), 0.455; with Dabrafenib + Pictilisib (first compound 0.3 µM), 0.497; in the experiment with VX-702 + Tozasertib (first compound 0.02 µM) it was 0.375; with VX-702 + Tozasertib (first compound 0.2 µM), 0.4; with VX-702 + Tozasertib (first compound 0.6325 µM), 0.465. In addition, the relative viability amounted to 0.497 in the experiment with VX-702 + Tozasertib (first compound 2 µM); 0.724 with VX-702 + Olaparib (first compound 0.02 µM); 0.678 with VX-702 + Olaparib (first compound 0.2 µM); 0.799 in the experiment with VX-702 + Olaparib (first compound 0.6325 µM); 0.776 with VX-702 + Olaparib (first compound 2 µM).

With LCLC-97TM1, the relative viability in the experiment with Dabrafenib + Foretinib (first compound 0.003 µM) turned out to be 0.938; in the experiment with Dabrafenib + Foretinib (first compound 0.009487 µM), 0.99; with Dabrafenib + Foretinib (first compound 0.03 µM) it was 0.972; with Dabrafenib + Foretinib (first compound 0.09487 µM) it was 0.864; with Dabrafenib + Foretinib (first compound 0.3 µM) it was 0.953; with Dabrafenib + Pictilisib (first compound 0.009487 µM) it was 0.206. The relative viability worked out at 0.213 with Dabrafenib + Pictilisib (first compound 0.03 µM); 0.149 with Dabrafenib + Pictilisib (first compound 0.3 µM); 0.175 with VX-702 + Tozasertib (first compound 0.02 µM); 0.183 in the experiment with VX-702 + Tozasertib (first compound 0.2 µM); 0.301 with VX-702 + Tozasertib (first compound 0.6325 µM); 0.252 in the experiment with VX-702 + Tozasertib (first compound 2 µM). The relative viability in the experiment with VX-702 + Olaparib (first compound 0.02 µM) stood at 0.428; with VX-702 + Olaparib (first compound 0.2 µM), 0.307; with VX-702 + Olaparib (first compound 0.6325 µM), 0.502; in the experiment with VX-702 + Olaparib (first compound 2 µM), 0.69.

As to LCLC-103H, the relative viability was found to be 0.762 in the experiment with Dabrafenib + Foretinib (first compound 0.003 µM); 0.791 in the experiment with Dabrafenib + Foretinib (first compound 0.009487 µM); 0.737 with Dabrafenib + Foretinib (first compound 0.03 µM); 0.804 with Dabrafenib + Foretinib (first compound 0.09487 µM); 0.849 with Dabrafenib + Foretinib (first compound 0.3 µM); 0.556 in the experiment with Dabrafenib + Pictilisib (first compound 0.003 µM). Also, the relative viability with Dabrafenib + Pictilisib (first compound 0.009487 µM) turned out to be 0.657; with Dabrafenib + Pictilisib (first compound 0.03 µM), 0.426; with Dabrafenib + Pictilisib (first compound 0.09487 µM), 0.721; with Dabrafenib + Pictilisib (first compound 0.3 µM), 0.71; with VX-702 + Tozasertib (first compound 0.02 µM), 0.405; with VX-702 + Tozasertib (first compound 0.2 µM), 0.355. For the same cell line, the relative viability turned out to be 0.456 with VX-702 + Tozasertib (first compound 0.6325 µM); 0.541 in the experiment with VX-702 + Tozasertib (first compound 2 µM); 0.788 with VX-702 + Olaparib (first compound 0.02 µM); 0.757 in the experiment with VX-702 + Olaparib (first compound 0.2 µM); 0.795 in the experiment with VX-702 + Olaparib (first compound 0.6325 µM); 0.817 in the experiment with VX-702 + Olaparib (first compound 2 µM).

As to LK-2, the relative viability with Dabrafenib + Foretinib (first compound 0.003 µM) was found to be 1.14; with Dabrafenib + Foretinib (first compound 0.009487 µM) it was 1.17; in the experiment with Dabrafenib + Foretinib (first compound 0.09487 µM), 1.28; with Dabrafenib + Foretinib (first compound 0.3 µM), 1.26; in the experiment with Dabrafenib + Pictilisib (first compound 0.003 µM) it was 0.552; with Dabrafenib + Pictilisib (first compound 0.009487 µM), 0.614. The relative viability with Dabrafenib + Pictilisib (first compound 0.09487 µM) turned out to be 0.587; in the experiment with Dabrafenib + Pictilisib (first compound 0.3 µM), 0.748; with VX-702 + Tozasertib (first compound 0.02 µM), 0.153; with VX-702 + Tozasertib (first compound 0.2 µM), 0.173; with VX-702 + Tozasertib (first compound 0.6325 µM), 0.157; with VX-702 + Tozasertib (first compound 2 µM), 0.168. The relative viability was determined as 0.68 in the experiment with VX-702 + Olaparib (first compound 0.02 µM), 0.601 in the experiment with VX-702 + Olaparib (first compound 0.2 µM), 0.555 with VX-702 + Olaparib (first compound 0.6325 µM) and 0.751 with VX-702 + Olaparib (first compound 2 µM).

LOU-NH91: the relative viability with Dabrafenib + Foretinib (first compound 0.003 µM) amounted to 0.858; in the experiment with Dabrafenib + Foretinib (first compound 0.009487 µM), 1.01; with Dabrafenib + Foretinib (first compound 0.03 µM) it was 0.894; with Dabrafenib + Foretinib (first compound 0.09487 µM), 0.918; in the experiment with Dabrafenib + Foretinib (first compound 0.3 µM), 0.958; in the experiment with Dabrafenib + Pictilisib (first compound 0.009487 µM), 0.549. In addition, the relative viability in the experiment with Dabrafenib + Pictilisib (first compound 0.03 µM) stood at 0.555; with Dabrafenib + Pictilisib (first compound 0.09487 µM), 0.548; in the experiment with Dabrafenib + Pictilisib (first compound 0.3 µM), 0.566; with VX-702 + Tozasertib (first compound 0.02 µM), 0.75; in the experiment with VX-702 + Tozasertib (first compound 0.2 µM) it was 0.657; with VX-702 + Tozasertib (first compound 0.6325 µM), 0.677. The relative viability with VX-702 + Tozasertib (first compound 2 µM) amounted to 0.628; with VX-702 + Olaparib (first compound 0.02 µM), 0.888; with VX-702 + Olaparib (first compound 0.2 µM), 0.891; with VX-702 + Olaparib (first compound 0.6325 µM), 0.911; in the experiment with VX-702 + Olaparib (first compound 2 µM), 0.881.
